Measurements reported in patent US10011571B2, “Preparation method for aromatic heterocyclic compound used as selective JAK3 and/or JAK1 kinase inhibitor and application of aromatic heterocyclic compound” (SHENZHEN CHIPSCREEN BIOSCIENCES, LTD., priority 2014, dated 2018).
Counter-ions that a name gives are not always drawn.

Legend:
[1] = target: JAK2 (Homo sapiens (Human), UniProt O60674); experiment: Z'-LYTE enzymatic activity detection, JAK2; type: biochemical; details: test compound 30 nM; for inhibition at 0.03 µM: read-out: JAK2 % inhibitory rate @30 nM
Procedure, shortened: (§1)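 GST-tagged human recombinant kinases with Z′-LYTE peptides (Tyr6 for JAK1, Tyr4 for JAK2 and JAK3), ATP from kit, reacted 1 h at room temperature; development 1 h, ratio 445/520 nm at 400 nm excitation gives phosphorylation. Inhibition vs solvent control at 30 nM (JAK2, JAK3) or 300 nM (JAK1); tofacitinib as positive control.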

[2] = target: JAK1 (Homo sapiens (Human), UniProt P23458); experiment: Z'-LYTE enzymatic activity detection, JAK1; type: biochemical; details: test compound 300 nM; for inhibition at 0.3 µM: read-out: JAK1 % inhibitory rate @300 nM
Procedure, shortened: as §1

[3] = target: JAK3 (Homo sapiens (Human), UniProt P52333); experiment: Z'-LYTE enzymatic activity detection, JAK3; type: biochemical; details: test compound 30 nM; for inhibition at 0.03 µM: read-out: JAK3 % inhibitory rate @30 nM
Procedure, shortened: as §1

[4] = test system: HUVEC cells; experiment: Cell growth activity assay (MTS), HUVEC cell model; type: cell-based; details: Homo sapiens, 72 h; for activity at 10 µM: read-out: HUVEC % growth rate @10 μM
Source text: MTS assay is a routine method for cell toxicity detection. The basic principle is based on the capacity of dehydrogenase in the mitochondria of living cells to reduce a novel yellow […] MTS to formazan, so that the amount of living cells is proportional to the amount of formazan product by detecting the absorbance at 490 nm (OD), thereby speculating the amount of living cells according to the OD value, and understanding the capacity of the test compound to inhibit the growth of cells or to kill the cells.
HeLa cell is a human cervical cancer cell line, and belongs to epithelial tumor cell line; HUVEC is a human umbilical vein endothelial cell, and belongs to primary endothelial cell; both types of cells express all subtypes except for JAK3.
The change of JAK kinase activity has no significant influence on other cell types except for the immune cells, and both cell models mentioned above are mainly used to evaluate whether there are any other kinase targets besides JAK kinases or there are nonselective cell toxicities.
In this experiment, a cultured cell model is incubated with the test compounds at different concentrations for a specific duration. The effect of the treatment by the test compound on the growth of cells is detected using MTS assay.
MTS is performed according to routine procedure in a 96-well plate.
The model cells are inoculated into each well of the 96-well plate at an appropriate concentration (about 5000 cells/well). After 24 h, the test compounds are added at different concentration gradients (the highest final concentration is 40 μM). A solvent control (DMSO) and a negative control are also performed at the same time. Each experiment is repeated for 3 times. The cells are detected after cultured for another 72 h.
After all culture medium is aspirated out of the well, 100 μL fresh medium and 20 μL pre-formulated mixture of MTS and PMS (in a ratio of 20:1) are added to each well. After incubation at 37° C. for 2 h, it is then detected by a microplate reader (490 nm).
The cell growth inhibitory rate and GI50 of the test compound are calculated as above.
Based on the above method, cytological evaluation is performed to the compounds described herein (for the detection of CTLL-2 cell, the concentration of the test compound is 300 nM; […]).

[5] = test system: HeLa cells; experiment: Cell growth activity assay (MTS), HeLa cell model; type: cell-based, human; parameters: activity: dose or concentration left out as unconfirmed; details: Homo sapiens, HeLa, 72 h; for activity: read-out: HeLa % growth rate
Procedure, shortened: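 HeLa human cervical cancer cells were plated at about 5000 cells/well in a 96-well plate. After 24 h, test compounds were added in concentration gradients (highest final concentration 40 μM), alongside a DMSO solvent control and a negative control. After another 72 h, the medium was replaced with 100 μL fresh medium plus 20 μL MTS/PMS (20:1). Plates were incubated 2 h at 37° C. and absorbance was read at 490 nm to give growth inhibition and GI50.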

[6] = test system: CTLL-2 cells; experiment: Cell growth activity assay (MTS), CTLL-2 cell model; type: cell-based, mouse; details: Mus musculus; for activity at 0.3 µM: CTLL-2, 300 nM, 24 h, read-out: CTLL-2 % growth rate @300 nM
Procedure, shortened: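 Mouse IL-2-dependent T-cell line seeded ~20,000 cells/well, compounds added after 24 h at gradient concentrations (top 10 μM; CTLL-2 evaluation at 300 nM), cultured another 24 h. MTS/PMS added, 2 h at 37° C, absorbance 490 nm; inhibition vs DMSO control after negative-control background subtraction, GI50 calculated; triplicate.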

[7] = test system: collagen-induced arthritis (CIA) model of rats; experiment: Collagen-induced arthritis (CIA) model of rats; type: in vivo; details: rat CIA
Experimental: Objective: in this test, arthritis is induced by chicken collagen in Wistar rats. After in vivo administration of the compounds of Example 7 and Example 22, the change of the disease index for arthritis in rats is evaluated to determine the therapeutic effect of the test compounds on rat arthritis.
Experimental animals: 36 female Wistar rats were purchased from the animal experiment center, Sun Yat-Sen University (Guangzhou) with the body weight ranging from 180 to 200 g at the beginning of experiment. Four groups (8 rats in each group) were used as the arthritis model, and another group (4 rats) was used as normal control.
Materials: chicken type II collagen and Freund's complete adjuvant were purchased from Beijing Biolead Science and Technology Development Co., Ltd. Positive control: methotrexat (MTX).
Preparation method: the test compounds were prepared by adding them to freshly prepared 0.2% CMC-Na+0.1% Tween-80 solution in sterile water to a desired concentration and thoroughly mixing through ultrasound.
CIA model: the chicken collagen was fully emulsified in equal volume of freud's complete adjuvant, and subcutaneously injected at the tail root of the rat on day 0 for sensitization (250 μL/rat). Another injection was performed at the tail root on day 7 for supplementary immunization (100 μL/rat). After arthritis occurred (on about day 13), the rats were randomly divided into 4 groups with 8 rats in each group. Administration started on day 14 after the first immunization, and lasted for 14 days. The limbs of a rat were visually inspected, and the severity of arthritis was scored in a range from […]: 0=normal; 1=a slight symptom, with signs, such as red and swollen ankle or wrist; 2=moderate red and swollen ankle or wrist; 3=severe red and swollen paw, including toes; 4=severe swollen joint accompanied with dysfunction; the highest score for each rat was 16. The thickness of toes of posterior limbs and the paw volume were measured at the same time.
Medication: the rats were i.g. administered with the compound of Example 7 at a concentration of 40 mg/kg twice/day; or the rats were i.g. administered with the compound of Example 22 at a concentration of 40 mg/kg twice/day. For the positive control, 5 mg/kg MTX was intraperitoneally injected twice a week. The i.g. administration of solvent was used as the negative control. The data obtained 14 days after administration and before administration were compared.

[8] = 14 days after administration, Examples 40 mg/kg i.g. twice/day, MTX 5 mg/kg i.p. twice a week

Sequence of JAK3 (P52333 whole entry): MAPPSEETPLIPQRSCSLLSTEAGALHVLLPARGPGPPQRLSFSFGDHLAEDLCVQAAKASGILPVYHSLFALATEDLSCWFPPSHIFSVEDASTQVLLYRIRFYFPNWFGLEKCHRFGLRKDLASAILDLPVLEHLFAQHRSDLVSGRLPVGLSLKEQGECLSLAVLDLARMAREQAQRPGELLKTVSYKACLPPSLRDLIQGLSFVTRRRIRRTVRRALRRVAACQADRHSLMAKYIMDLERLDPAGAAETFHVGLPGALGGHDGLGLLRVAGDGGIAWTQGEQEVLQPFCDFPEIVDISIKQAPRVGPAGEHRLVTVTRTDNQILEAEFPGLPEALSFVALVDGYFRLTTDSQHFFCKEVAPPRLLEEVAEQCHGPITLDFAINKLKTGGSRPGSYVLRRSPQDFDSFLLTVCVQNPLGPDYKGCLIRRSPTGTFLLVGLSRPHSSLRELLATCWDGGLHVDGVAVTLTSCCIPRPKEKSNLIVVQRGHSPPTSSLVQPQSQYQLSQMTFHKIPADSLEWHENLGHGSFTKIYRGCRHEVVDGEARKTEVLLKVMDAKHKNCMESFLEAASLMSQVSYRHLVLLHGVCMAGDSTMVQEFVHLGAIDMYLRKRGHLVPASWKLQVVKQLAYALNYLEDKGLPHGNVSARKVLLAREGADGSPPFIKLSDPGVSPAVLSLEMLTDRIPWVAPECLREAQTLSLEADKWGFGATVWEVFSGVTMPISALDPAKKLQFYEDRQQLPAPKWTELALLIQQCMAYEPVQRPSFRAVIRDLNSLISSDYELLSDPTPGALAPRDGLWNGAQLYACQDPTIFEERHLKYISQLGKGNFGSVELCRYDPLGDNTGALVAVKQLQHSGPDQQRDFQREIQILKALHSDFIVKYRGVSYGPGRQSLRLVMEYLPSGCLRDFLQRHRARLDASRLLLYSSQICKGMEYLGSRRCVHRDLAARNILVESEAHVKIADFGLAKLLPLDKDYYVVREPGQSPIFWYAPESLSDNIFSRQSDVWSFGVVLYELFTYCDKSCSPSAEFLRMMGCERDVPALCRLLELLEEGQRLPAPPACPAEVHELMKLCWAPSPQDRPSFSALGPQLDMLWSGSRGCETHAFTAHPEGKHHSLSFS
Sequence of JAK2 (O60674 whole entry): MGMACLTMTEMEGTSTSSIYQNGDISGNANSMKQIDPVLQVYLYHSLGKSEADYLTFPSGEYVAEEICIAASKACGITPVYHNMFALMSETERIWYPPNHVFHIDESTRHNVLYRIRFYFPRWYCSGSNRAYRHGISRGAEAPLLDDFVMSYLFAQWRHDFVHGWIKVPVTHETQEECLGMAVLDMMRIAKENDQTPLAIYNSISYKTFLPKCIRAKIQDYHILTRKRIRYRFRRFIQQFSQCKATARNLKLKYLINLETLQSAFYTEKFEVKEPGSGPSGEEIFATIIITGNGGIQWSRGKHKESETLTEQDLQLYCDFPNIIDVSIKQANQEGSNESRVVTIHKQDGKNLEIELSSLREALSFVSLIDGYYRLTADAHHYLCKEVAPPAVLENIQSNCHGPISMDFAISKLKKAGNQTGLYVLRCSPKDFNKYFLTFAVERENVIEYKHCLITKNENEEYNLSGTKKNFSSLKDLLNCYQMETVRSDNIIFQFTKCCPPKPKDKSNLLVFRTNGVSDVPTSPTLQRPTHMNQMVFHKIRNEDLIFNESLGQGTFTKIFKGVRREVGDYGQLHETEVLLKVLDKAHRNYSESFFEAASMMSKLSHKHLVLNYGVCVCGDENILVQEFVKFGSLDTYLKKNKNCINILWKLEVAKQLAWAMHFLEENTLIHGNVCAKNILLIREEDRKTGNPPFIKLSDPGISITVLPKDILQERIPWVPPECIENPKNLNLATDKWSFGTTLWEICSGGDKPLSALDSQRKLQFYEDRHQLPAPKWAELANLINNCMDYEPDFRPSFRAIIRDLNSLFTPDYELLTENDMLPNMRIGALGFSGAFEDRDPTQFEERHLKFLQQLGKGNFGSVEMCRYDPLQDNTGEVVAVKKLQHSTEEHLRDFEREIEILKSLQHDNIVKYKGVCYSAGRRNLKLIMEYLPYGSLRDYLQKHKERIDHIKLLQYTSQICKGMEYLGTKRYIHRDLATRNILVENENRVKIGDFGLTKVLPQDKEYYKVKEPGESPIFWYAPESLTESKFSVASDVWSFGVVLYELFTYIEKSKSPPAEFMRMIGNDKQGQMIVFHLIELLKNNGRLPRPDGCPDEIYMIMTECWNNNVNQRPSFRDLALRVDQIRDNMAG
Sequence of JAK1 (P23458 whole entry): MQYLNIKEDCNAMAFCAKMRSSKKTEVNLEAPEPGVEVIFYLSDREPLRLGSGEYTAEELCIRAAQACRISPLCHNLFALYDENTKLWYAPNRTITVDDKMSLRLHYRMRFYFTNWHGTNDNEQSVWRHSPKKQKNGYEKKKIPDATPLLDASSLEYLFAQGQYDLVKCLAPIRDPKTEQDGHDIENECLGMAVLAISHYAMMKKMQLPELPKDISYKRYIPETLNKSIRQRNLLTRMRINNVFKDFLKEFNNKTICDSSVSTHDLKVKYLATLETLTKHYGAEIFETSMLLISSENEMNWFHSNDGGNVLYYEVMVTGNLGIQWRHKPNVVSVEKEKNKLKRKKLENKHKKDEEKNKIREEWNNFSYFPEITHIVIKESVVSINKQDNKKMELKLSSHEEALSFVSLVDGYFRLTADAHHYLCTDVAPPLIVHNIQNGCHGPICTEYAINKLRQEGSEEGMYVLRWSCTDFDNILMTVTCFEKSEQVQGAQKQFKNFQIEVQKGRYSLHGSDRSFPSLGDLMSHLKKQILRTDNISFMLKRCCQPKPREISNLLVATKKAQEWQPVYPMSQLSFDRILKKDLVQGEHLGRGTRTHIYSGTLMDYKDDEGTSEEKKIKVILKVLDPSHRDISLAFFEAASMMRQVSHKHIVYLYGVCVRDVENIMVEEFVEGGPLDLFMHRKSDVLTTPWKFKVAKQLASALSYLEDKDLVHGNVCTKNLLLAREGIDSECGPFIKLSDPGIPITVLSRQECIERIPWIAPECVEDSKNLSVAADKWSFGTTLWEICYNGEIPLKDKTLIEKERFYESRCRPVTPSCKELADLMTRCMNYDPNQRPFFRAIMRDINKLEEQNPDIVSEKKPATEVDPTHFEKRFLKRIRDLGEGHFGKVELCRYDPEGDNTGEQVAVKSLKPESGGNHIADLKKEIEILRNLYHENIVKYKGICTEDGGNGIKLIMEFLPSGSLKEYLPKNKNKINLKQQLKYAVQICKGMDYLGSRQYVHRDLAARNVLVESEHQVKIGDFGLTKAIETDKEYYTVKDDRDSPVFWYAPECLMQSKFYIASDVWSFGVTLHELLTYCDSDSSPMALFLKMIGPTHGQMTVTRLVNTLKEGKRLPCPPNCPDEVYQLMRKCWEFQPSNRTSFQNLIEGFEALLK

| SMILES | JAK2 RV (ratio between the inhibitory rate of the test compound and that of Xeljanz) [1] | inhibition at 0.03 µM [1] [%] | JAK1 RV (ratio between the inhibitory rate of the test compound and that of Xeljanz) [2] | inhibition at 0.3 µM [2] [%] | JAK3 RV (ratio between the inhibitory rate of the test compound and that of Xeljanz) [3] | inhibition at 0.03 µM [3] [%] | GI50 [5] [µM] | activity at 10 µM [4] [%] | activity [5] [%] | activity at 0.3 µM [6] [%] | Inhibitory rate for arthritis score % [7, 8] [%] | Inhibitory rate for paw volume % [7, 8] [%] | Inhibitory rate for toe thickness % [7, 8] [%] | Body weight growth rate % ([7]; 14 days after administration, solvent = 100.0, Examples 40 mg/kg i.g. twice/day, MTX 5 mg/kg i.p. twice a week) [%] | toxicity to the rats judged from body weight ([7]; compared to the solvent group) | GI50 [4] [µM] | GI50 ([6]; CTLL-2, 24 h) [µM] |
| --- | --- | --- | --- | --- | --- | --- | --- | --- | --- | --- | --- | --- | --- | --- | --- | --- | --- |
| CN(Cc1cnc2nc(N)nc(N)c2n1)c1ccc(C(=O)N[C@@H](CCC(=O)O)C(=O)O)cc1 [MTX, methotrexate, reference compound] | – | – | – | – | – | – | – | – | – | – | 73.1 | 43.1 | 70.2 | 95.4 | certain toxicity | – | – |
| C=CC(=O)N(C)c1cc(Nc2ncc(Cl)c(NCCCNC(=O)c3ccc(N(C)C)cc3)n2)ccc1F [Example 32, N-(3-(5-chloro-2-(4-fluoro-3-(N-methylacrylamido)phenylamino)pyrimidinyl-4-amino)propyl)-4-dimethylamino benzamide] | 0.03 | 2 | 0.57 | 49 | 0.94 | 89 | – | 72 | 68 | 16 | – | – | – | – | – | – | – |
| C=CC(=O)Nc1cc(Nc2ncc(Cl)c(NCCCNC(=O)c3ccc(C#N)cc3)n2)ccc1F [Example 28, N-(3-(2-(3-acrylamido-4-fluorophenylamino)-5-chloropyrimidinyl-4-amino)propyl)-4-cyano-benzamide] | 0.03 | 2 | 0.40 | 34 | 0.85 | 81 | – | 98 | 81 | 77 | – | – | – | – | – | – | – |
| C[C@@H]1CCN(C(=O)CC#N)C[C@@H]1N(C)c1ncnc2[nH]ccc12 [Xeljanz, tofacitinib citrate, reference compound] | – | – | – | – | – | – | > 40 | – | – | – | – | – | – | – | – | > 40 | 0.067 |

Further lines, with some results ahead:

| JAK2 RV (ratio between the inhibitory rate of the test compound and that of Xeljanz) [1] | inhibition at 0.03 µM [1] [%] | JAK1 RV (ratio between the inhibitory rate of the test compound and that of Xeljanz) [2] | inhibition at 0.3 µM [2] [%] | JAK3 RV (ratio between the inhibitory rate of the test compound and that of Xeljanz) [3] | inhibition at 0.03 µM [3] [%] | GI50 [5] [µM] | SMILES | activity at 10 µM [4] [%] | activity [5] [%] | activity at 0.3 µM [6] [%] | Inhibitory rate for arthritis score % [7, 8] [%] | Inhibitory rate for paw volume % [7, 8] [%] | Inhibitory rate for toe thickness % [7, 8] [%] | Body weight growth rate % ([7]; 14 days after administration, solvent = 100.0, Examples 40 mg/kg i.g. twice/day, MTX 5 mg/kg i.p. twice a week) [%] | toxicity to the rats judged from body weight ([7]; compared to the solvent group) | GI50 [4] [µM] | GI50 ([6]; CTLL-2, 24 h) [µM] |
| --- | --- | --- | --- | --- | --- | --- | --- | --- | --- | --- | --- | --- | --- | --- | --- | --- | --- |
| 0.03 | 1 | 0.93 | 79 | 0.97 | 84 | – | C=CC(=O)Nc1cc(Nc2ncc(Cl)c(NCCCNC(=O)c3ccc(F)cc3)n2)ccc1F [Example 17, N-(3-(2-(3-acrylamido-4-fluoro-phenylamino)-5-chloropyrimidinyl-4-amino)propyl)-4-fluorobenzamide] | 1 | 1 | 20 | – | – | – | – | – | – | – |
| 0.07 | 2 | 0.69 | 59 | 0.82 | 71 | – | C=CC(=O)N(C)c1cc(Nc2ncc(C)c(NCCCNC(=O)c3ccc(C(F)(F)F)cc3)n2)ccc1F [Example 21, N-(3-(2-(4-fluoro-3-(N-methylacrylamido)phenylamino)-5-methylpyrimidinyl-4-amino)propyl)-4-trifluoromethylbenzamide] | 102 | 94 | 57 | – | – | – | – | – | – | – |
| – | 0 | – | 39 | – | 59 | – | C=CC(=O)N(C)c1cc(Nc2ncc(C)c(NCCCNC(=O)c3ccc(F)cc3)n2)ccc1F [Example 19, 4-fluoro-N-(3-(2-(4-fluoro-3-(N-methylacrylamido)phenylamino)-5-methylpyrimidinyl-4-amino)propyl)benzamide] | 136 | 108 | 67 | – | – | – | – | – | – | – |
| – | – | 0.45 | 42 | 0.59 | 35 | – | C=CC(=O)N(C)c1cc(Nc2ncc(Cl)c(NCCCNC(=O)C3CCN(C)CC3)n2)ccc1F [Example 27, N-(3-(5-chloro-2-(4-fluoro-3-(N-methylacrylamido)phenylamino)pyrimidinyl-4-amino)propyl)-1-methylpiperidinyl-4-formamide] | 6 | 30 | 85 | – | – | – | – | – | – | – |
